Source: patent US8257478B2, “Use of marine fungus originated compounds as antifouling agents” (The Hong Kong University of Science and Technology, priority 2004, dated 2012)
In brackets after ≈: the same amount, converted by molar mass.

What was measured:
Staphylococcus aureus = experiment: agar disc diffusion assay, inhibition zone; assay type: cell-based; conditions: 50 μg/disc, 30° C., 24 h, read-out: Inhibition Zone Width
Procedure: (§1) Antibacterial activity was tested against bacteria using an agar disc diffusion assay method. Sterile paper discs (6 mm i.d.) impregnated with the substance under test at a concentration of 50 μg disc^−1 were applied onto the surface of an agar plate (plastic Petri dish) inoculated with one strain with sterile forceps and gently pressed down to ensure good contact with the surface. Blank discs treated with the same volume of DMSO were added. A control disc, containing streptomycin was used. After the application of discs, the plates were incubated at 30° C. for 24 h, and then the size of the inhibition zone was measured.

Ruegeria sp. = experiment: agar disc diffusion assay, inhibition zone; assay type: cell-based; conditions: 50 μg/disc, 30° C., 24 h; read-out: Inhibition Zone Width
Procedure: as §1

[1] = tested on: barnacle Balanus amphitrite larvae; experiment: anti-larval settlement bioassay in 24-well plates; assay type: in vivo; conditions: for EC50: Amphibalanus amphitrite, Balanus amphitrite larvae, read-out: EC50 (anti-larval settlement)
Procedure: Anti-larval settlement activity of 3-chloro-2,5-dihydroxy benzyl alcohol (compound 1) was conducted using 24-well polystyrene plates. Pure compound was dissolved in DMSO and added to autoclaved FSW at different concentrations. Competent Balanus amphitrites larvae (10±2 individuals) were added to each well with 1 ml testing solution in 5 replicates, and wells containing FSW (filtered seawater) served as control. The 24-well plates were incubated at 30° C. for 24 h. The percent settlement was determined by counting the number of settled larvae under a dissecting microscope. In all bioassays, FSW served as the control. Statistical calculations were performed with the SPSS (Statistical Package for the Social Sciences) software package, Version 11.
(§2) The larval bioassay was conducted according to Rittschof et al. (1994), which is incorporated by reference herein in its entirety.
(§3) The assay was conducted according to Rittschof et al. (1994). Data plotted are means+SD of five replicates.
For determining anti-larval settlement activity, adult Balanus amphitrile (Darwin) were collected from the intertidal zone in Hong Kong (22°19′N, 114°16′E). Nauplii obtained from several adults were mass-reared to cyprid stage at a density of 2 larvae ml^−1 in 0.22-μm-filtered seawater with 30 ppt salinity (FSW) using Chaetoceros gracilis Schutt as food and a rearing temperature of 28° C. Newly transformed cyprids were used for the experiment.
Anti-larval settlement activity of succinic acid against B. amphitrite was determined using 24-well polystyrene plates. Pure compound was dissolved in autoclaved FSW ranged from 60-140 μg ml^−1 for B. amphitrite. Competent larvae (15±2 individuals) were added to each well with 1 ml testing solution in 5 replicates, and wells containing FSW served as the control. The 24-well plates were incubated at 30° C. for 24 h. The percent larval settlement was determined by counting the number of settled individuals under a dissecting microscope and expressed as a proportion of the total number of larvae in the well.

[2] = solubility in organic solvents; assay type: physicochemical; conditions: at 25° C. in methanol, ethanol, propanol, butanol, ethyl acetate, acetone and acetonitrile
Vibrio harveyi = experiment: agar disc diffusion assay, inhibition zone; assay type: cell-based; conditions: 50 μg/disc, 30° C., 24 h, read-out: Inhibition Zone Width
Procedure: as §1
as §1, with “using” for “using an”, “assay.” for “assay method.”, “disc” for “disc,”, “h. The” for “h, and then the”, “measured. The results are presented in Table 8 and Table 9 for Cyclo (D)-Pro-(D)-Phe and b3-methyl-N-(2-phenylethyl)butanamide, respectively.” for “measured.”

Vibrio fluvialis = experiment: agar disc diffusion assay, inhibition zone; assay type: cell-based; conditions: 50 μg/disc, 30° C., 24 h, read-out: Inhibition Zone Width
Procedure: as §1
as §1, with “using” for “using an”, “assay.” for “assay method.”, “disc” for “disc,”, “h. The” for “h, and then the”, “measured. The results are presented in Table 8 and Table 9 for Cyclo (D)-Pro-(D)-Phe and b3-methyl-N-(2-phenylethyl)butanamide, respectively.” for “measured.”

Shewanella algae = experiment: agar disc diffusion assay, inhibition zone; assay type: cell-based; conditions: 50 μg/disc, 30° C., 24 h, read-out: Inhibition Zone Width
Procedure: as §1
as §1, with “using” for “using an”, “assay.” for “assay method.”, “disc” for “disc,”, “h. The” for “h, and then the”, “measured. The results are presented in Table 8 and Table 9 for Cyclo (D)-Pro-(D)-Phe and b3-methyl-N-(2-phenylethyl)butanamide, respectively.” for “measured.”

Pseudoalteromonas sp. = experiment: agar disc diffusion assay, inhibition zone; assay type: cell-based; conditions: 50 μg/disc, 30° C., 24 h, read-out: Inhibition Zone Width
Procedure: as §1
as §1, with “using” for “using an”, “assay.” for “assay method.”, “disc” for “disc,”, “h. The” for “h, and then the”, “measured. The results are presented in Table 8 and Table 9 for Cyclo (D)-Pro-(D)-Phe and b3-methyl-N-(2-phenylethyl)butanamide, respectively.” for “measured.”

Moraxella phenylpyruvica = experiment: agar disc diffusion assay, inhibition zone; assay type: cell-based; conditions: Psychrobacter phenylpyruvicus; 50 μg/disc, 30° C., 24 h; read-out: Inhibition Zone Width
Procedure: as §1
as §1, with “using” for “using an”, “assay.” for “assay method.”, “disc” for “disc,”, “h. The” for “h, and then the”, “measured. The results are presented in Table 8 and Table 9 for Cyclo (D)-Pro-(D)-Phe and b3-methyl-N-(2-phenylethyl)butanamide, respectively.” for “measured.”

Micrococcus luteus = experiment: agar disc diffusion assay, inhibition zone; assay type: cell-based; conditions: 50 μg/disc, 30° C., 24 h, read-out: Inhibition Zone Width
Procedure: as §1
as §1, with “using” for “using an”, “assay.” for “assay method.”, “disc” for “disc,”, “h. The” for “h, and then the”, “measured. The results are presented in Table 8 and Table 9 for Cyclo (D)-Pro-(D)-Phe and b3-methyl-N-(2-phenylethyl)butanamide, respectively.” for “measured.”

[3] = tested on: Staphylococcus haemolyticus; experiment: agar disc diffusion assay, inhibition zone; assay type: cell-based; conditions: 50 μg/disc, 30° C., 24 h, read-out: Inhibition Zone Width
Procedure: as §1
as §1, with “using” for “using an”, “assay.” for “assay method.”, “disc” for “disc,”, “h. The” for “h, and then the”, “measured. The results are presented in Table 8 and Table 9 for Cyclo (D)-Pro-(D)-Phe and b3-methyl-N-(2-phenylethyl)butanamide, respectively.” for “measured.”

[4] = tested on: Pseudoalteromonas piscida; experiment: agar disc diffusion assay, inhibition zone; assay type: cell-based; conditions: 50 μg/disc, 30° C., 24 h, read-out: Inhibition Zone Width
Procedure: as §1
as §1, with “using” for “using an”, “assay.” for “assay method.”, “disc” for “disc,”, “h. The” for “h, and then the”, “measured. The results are presented in Table 8 and Table 9 for Cyclo (D)-Pro-(D)-Phe and b3-methyl-N-(2-phenylethyl)butanamide, respectively.” for “measured.”

Vibrio sp. (NAP-4) = experiment: agar disc diffusion assay, inhibition zone; assay type: cell-based; conditions: 50 μg/disc, 30° C., 24 h, read-out: Inhibition Zone Width
Procedure: as §1
as §1, with “using” for “using an”, “assay.” for “assay method.”, “disc” for “disc,”, “h. The” for “h, and then the”, “measured. The results are presented in Table 8 and Table 9 for Cyclo (D)-Pro-(D)-Phe and b3-methyl-N-(2-phenylethyl)butanamide, respectively.” for “measured.”

in vivo = conditions: Balanus amphitrite (barnacle) larvae, in vivo
Procedure: as §2
(§4) Toxicity of cyclo (D)-Pro-(D)-Phe was determined using 24-well polystyrene plates. Pure compound was dissolved in DMSO and added to autoclaved FSW to form different concentrations. Competent Balanus amphitrites larvae (10±2 individuals) were added to each well with 1 ml testing solution in 5 replicates. The wells containing FSW served as the control. The 24-well plates were incubated at 30° C. for 24 h. The percent mortality was determined by counting the number of dead larvae under a dissecting microscope.
as §3

[5] = tested on: Balanus amphitrite larvae; experiment: in vivo; conditions: Balanus amphitrite, in vivo, 24 h
Procedure: as §2, §4, §3

Rhodovulum sp. = experiment: agar disc diffusion assay, inhibition zone; assay type: cell-based; conditions: 50 μg/disc, 30° C., 24 h; read-out: Inhibition Zone Width
Procedure: as §1, with “using” for “using an”, “assay.” for “assay method.”, “disc” for “disc,”, “h. The” for “h, and then the”, “measured. The results are presented in Table 8 and Table 9 for Cyclo (D)-Pro-(D)-Phe and b3-methyl-N-(2-phenylethyl)butanamide, respectively.” for “measured.”

Vibrio vulnificus = experiment: agar disc diffusion assay, inhibition zone; assay type: cell-based; conditions: 50 μg/disc, 30° C., 24 h, read-out: Inhibition Zone Width
Procedure: as §1, with “using” for “using an”, “assay.” for “assay method.”, “disc” for “disc,”, “h. The” for “h, and then the”, “measured. The results are presented in Table 8 and Table 9 for Cyclo (D)-Pro-(D)-Phe and b3-methyl-N-(2-phenylethyl)butanamide, respectively.” for “measured.”

Vibrio halioticoli = experiment: agar disc diffusion assay, inhibition zone; assay type: cell-based; conditions: 50 μg/disc, 30° C., 24 h, read-out: Inhibition Zone Width
Procedure: as §1, with “using” for “using an”, “assay.” for “assay method.”, “disc” for “disc,”, “h. The” for “h, and then the”, “measured. The results are presented in Table 8 and Table 9 for Cyclo (D)-Pro-(D)-Phe and b3-methyl-N-(2-phenylethyl)butanamide, respectively.” for “measured.”

Loktanella hongkongensis = experiment: agar disc diffusion assay, inhibition zone; assay type: cell-based; conditions: Limimaricola hongkongensis; 50 μg/disc, 30° C., 24 h; read-out: Inhibition Zone Width
Procedure: as §1, with “using” for “using an”, “assay.” for “assay method.”, “disc” for “disc,”, “h. The” for “h, and then the”, “measured. The results are presented in Table 8 and Table 9 for Cyclo (D)-Pro-(D)-Phe and b3-methyl-N-(2-phenylethyl)butanamide, respectively.” for “measured.”

Vibrio furnissii = experiment: agar disc diffusion assay, inhibition zone; assay type: cell-based; conditions: 50 μg/disc, 30° C., 24 h, read-out: Inhibition Zone Width
Procedure: as §1, with “using” for “using an”, “assay.” for “assay method.”, “disc” for “disc,”, “h. The” for “h, and then the”, “measured. The results are presented in Table 8 and Table 9 for Cyclo (D)-Pro-(D)-Phe and b3-methyl-N-(2-phenylethyl)butanamide, respectively.” for “measured.”

Vibrio alginolyticus = experiment: agar disc diffusion assay, inhibition zone; assay type: cell-based; conditions: 50 μg/disc, 30° C., 24 h, read-out: Inhibition Zone Width
Procedure: as §1, with “using” for “using an”, “assay.” for “assay method.”, “disc” for “disc,”, “h. The” for “h, and then the”, “measured. The results are presented in Table 8 and Table 9 for Cyclo (D)-Pro-(D)-Phe and b3-methyl-N-(2-phenylethyl)butanamide, respectively.” for “measured.”

Row | Compound | EC50 [1] [µg/mL] | solubility [2] | zone of inhibition at 50 µg/disc (Vibrio harveyi) [mm] | zone of inhibition at 50 µg/disc (Vibrio fluvialis) [mm] | zone of inhibition at 50 µg/disc (Shewanella algae) [mm] | zone of inhibition at 50 µg/disc (Pseudoalteromonas sp.) [mm] | zone of inhibition at 50 µg/disc (Moraxella phenylpyruvica) [mm] | zone of inhibition at 50 µg/disc (Micrococcus luteus) [mm] | zone of inhibition at 50 µg/disc [3] [mm] | zone of inhibition at 50 µg/disc [4] [mm] | zone of inhibition at 50 µg/disc (Vibrio sp. (NAP-4)) [mm] | LC50 at 24 h (in vivo) [µg/mL] | therapeutic ratio LC50/EC50 [5] | further results
1 | OCc1cc(O)cc(Cl)c1O [Compound 1, 3-chloro-2,5-dihydroxy benzyl alcohol] | 3.5 (≈ 20 µM) | soluble | 3.5 | 5.5 | 4.5 | 5.5 | 5.5 | 6 | 6 | 5 | 4 | 267 (≈ 1530 µM) | 76.2 | zone of inhibition at 50 µg/disc (Staphylococcus aureus): 5.5 mm; zone of inhibition at 50 µg/disc (Ruegeria sp.): 3.5 mm; concentration at which compound started showing anti-settlement effects ([1]; as low as): 0.1 µg/mL; barnacle larval settlement ([1]; at 5 μg ml^−1, 24 h, 60% in the control): about 10%
2 | O=C1NC(Cc2ccccc2)C(=O)N2CCCC12 (stereo not drawn) [Compound 2, cyclo-(Pro-Phe)] | 67.3 (≈ 275 µM) | soluble | 0.5 | 1.2 ± 0.7 | 0 | 1.7 ± 0.6 | 0 | 0.5 | 0.8 ± 0.3 | 0 | 1.3 ± 0.6 | 115 (≈ 470 µM) | 1.70 | zone of inhibition at 50 µg/disc (Rhodovulum sp.): 0 mm; zone of inhibition at 50 µg/disc (Vibrio vulnificus): 1 ± 0.1 mm; zone of inhibition at 50 µg/disc (Vibrio halioticoli): 0 mm; zone of inhibition at 50 µg/disc (Loktanella hongkongensis): 1.3 ± 0.6 mm; zone of inhibition at 50 µg/disc (Vibrio furnissii): 0 mm; zone of inhibition at 50 µg/disc (Vibrio alginolyticus): 0 mm
